Assays:
[1] = test system: activated CaMKIIγ in HL60R cells; test: Western blot of CaMKIIγ autophosphorylation in HL60R cells; type: cell-based, human; settings: five days ATRA
Procedure: (§1) FIG. 9. Terminal differentiation/apoptosis of myeloid leukemia cells is associated with decreased CaMKIIγ activation. (A) Lysates from the HL60, NB4 and U937 myeloid cell lines treated with ATRA (1 μM) for the indicated period of time were subjected to Western blots. (B) Lysates from the indicated myeloid cell lines treated for five days with the indicated concentration of ATRA were subjected to Western blots. (C) Lysates from HL60 cells treated with TPA (0.1 μM) for the indicated time were subjected to Western blots. (D) Lysates from NB4 cells treated with arsenic trioxide (1 uM) for the indicated time were subjected to Western blots.
(§2) Antibodies and Western blots. Protein extracts, immunoprecipitations and Western blots were performed as previously detailed (Si J, Collins S J. IL-3-induced enhancement of retinoic acid receptor activity is mediated through Stat5, which physically associates with retinoic acid receptors in an IL-3-dependent manner. Blood 100: 4401-9 (2002)). Antibodies against CaMKI, CaMKIIγ, CaMKIV, c-myc, Stat3, Stat5, calmodulin, as well as the phosphospecific CaMKII (T286, 287) and phosphospecific CaMKI (T177) antibodies were from Santa Cruz Biotechnology. […]

[2] = test system: activated CaMKIIγ in U937 cells; test: Western blot of CaMKIIγ autophosphorylation in U937 cells; type: cell-based, human
Procedure: as §1, §2

[3] = test system: activated CaMKIIγ in THP1 cells; test: Western blot of CaMKIIγ autophosphorylation in THP1 cells; type: cell-based, human; settings: five days ATRA
Procedure: as §1, §2

[4] = test system: KCL-22 cells; test: Differentiation of KCL-22 cells; type: cell-based, human; settings: preliminary studies; not shown
Excerpt: (§3) Pharmacological CaMK inhibitors trigger myeloid leukemia cell differentiation. Particularly compelling evidence for the physiological importance of the CaMKII—mediated regulation of RAR activity is our experimental observation that KN-62, a pharmacological inhibitor of the CaMKs, enhances both RAR transcriptional activity (FIG. 1B) and the differentiation of certain myeloid leukemia cell lines (FIG. 7). Acute myelogenous leukemia (AML) is a heterogenous disease, and successful therapy with RA has been generally confined to those leukemias harboring RARα chromosome translocations.

[5] = test system: HL60R cells (mutated RARα); test: Differentiation of HL60R cells; type: cell-based, human; settings: HL60R harbor a mutated RARα
Excerpt: as §3

[6] = test system: MPRO cell line; test: Granulocytic differentiation of MPRO cell line; type: cell-based; settings: single agent; not shown
Excerpt: Thus the CaMK inhibitor KN-62 not only enhances RAR transcriptional activity but either as a single agent or in combination with relatively low doses of RA can induce/enhance the differentiation of different myeloid leukemia cell lines.

[7] = test system: K562 cells; test: K562 proliferation in liquid suspension culture (cell counts); type: cell-based, human
[8] = test system: KG-1 cells; test: KG-1 proliferation in liquid suspension culture; type: cell-based, human
Procedure: (§4) FIG. 11. […] (A) K562 cells were seeded in liquid suspension culture at 5×10^4 cells/ml in the presence or absence of the indicated concentration of compounds, and cell counts were obtained at the indicated time. (B) The indicated myeloid leukemia cell lines were seeded in liquid suspension culture at 5×10^4 cells/ml in the presence or absence of KN93, and cell counts obtained at the indicated time. (C) K562 cells were electroporated with the LXSN expression vector harboring the kinase dead, Lys^43 mutated, truncated CaMKII construct (kdCaMKII) as well as with the control (empty) LXSN vector. The electroporated cells were diluted into 96 well plates in liquid suspension culture in the presence of G418 (1 mg/ml). Following eight days of culture the total number of discrete, actively proliferating G418 resistant colonies within individual wells was determined.
(§5) Cell lines. All leukemia cell lines are cultured at 37° in RPMI supplemented with 5% heat-inactivated fetal calf serum.

[9] = test system: Kasumi cells; test: Kasumi proliferation in liquid suspension culture; type: cell-based, human
Procedure: as §4, §5

[10] = test system: K562 cells; test: Western blots of signal transduction pathways in K562 cells; type: cell-based, human; settings: K562 cultured in KN93
Procedure: FIG. 12. CaMKII regulates multiple signal transduction pathways in myeloid cells. (A,B) Lysates from K562 cells cultured for the indicated time in KN93 were subjected to Western blots. (C) The K562 cells transduced as described in Materials and Methods with either (i) the doxycycline (DOX) inducible expression vector/transactivator harboring the full length, Lys^43 mutated, kinase dead CaMKIIγ (kdCaMKIIγ (Tet-on)) or (ii) the CaMKII shRNA generating plasmids, were cultured in liquid suspension in the presence or absence of DOX as indicated, and cell counts obtained after 48 hours. (D) Lysates from K562 cells transduced with the indicated vectors were subjected to Western blots utilizing the indicated antibodies. For lanes 2 and 4 doxycycline (DOX) treatment was for two days.
Antibodies and Western blots. Protein extracts, immunoprecipitations and Western blots were performed as previously detailed (Si J, Collins S J. IL-3-induced enhancement of retinoic acid receptor activity is mediated through Stat5, which physically associates with retinoic acid receptors in an IL-3-dependent manner. Blood 100: 4401-9 (2002)). Antibodies against CaMKI, CaMKIIγ, CaMKIV, c-myc, Stat3, Stat5, calmodulin, as well as the phosphospecific CaMKII (T286, 287) and phosphospecific CaMKI (T177) antibodies were from Santa Cruz Biotechnology. Antibodies against phospho-Stat1 (Ser727), phospho-Stat3 (Ser727 and Tyr 705), phospho-Stat5 (Tyr 694), phospho-p44/42 MAP kinase (Thr202/Tyr 204), p44/42 MAP kinase, phospho-p38 MAP kinase (Thr 180/Tyr 182), phospho-GSK3β (Ser9) were from Cell Signaling Technology. Antibodies against Stat1, GSK3β, β-catenin, PP2Ac, and cyclin D1 were from BD Biosciences.

Structure (SMILES): CC1=C(/C=C/C(C)=C/C=C/C(C)=C/C(=O)O)C(C)(C)CCC1 [ATRA, All-trans retinoic acid]
- activated CaMKIIγ level [1]: not observed
- total CaMKIIγ level [2]: essentially unchanged
- activated CaMKIIγ level ([2]; ATRA 1 μM): marked decrease
- activated CaMKIIγ level [3]: did not exhibit any decrease

Structure (SMILES): CN([C@@H](Cc1ccc(OS(=O)(=O)c2cccc3cnccc23)cc1)C(=O)N1CCN(c2ccccc2)CC1)S(=O)(=O)c1cccc2cnccc12 [KN-62]
- differentiation of KCL-22 [4]: does not induce
- KN62-mediated differentiation of HL60R [5]: do not observe any
- granulocytic differentiation of MPRO [6]: enhanced

Structure (SMILES): COc1ccc(S(=O)(=O)N(CCO)c2ccccc2CN(C)C/C=C/c2ccc(Cl)cc2)cc1 [KN-93]
- K562 viability [7]: did not affect
- K562 cell proliferation ([7]; seeded at 5×10^4 cells/ml, cell counts): inhibited the proliferation of K562 cells in a dose dependent manner
- cell proliferation [8]: inhibition
- cell viability or morphologic differentiation [8]: without any significant effect
- cell proliferation [9]: inhibition
- cell viability or morphologic differentiation [9]: without any significant effect
- GSK3β Ser9 phosphorylation [10]: marked reduction
- activation (phosphorylation) of p38 [10]: decrease
- activation (phosphorylation) of pMAPK p44/42 [10]: decrease
- activation (phosphorylation) of pStat3 (Y705, S727) [10]: decrease
- activation (phosphorylation) of pStat5 (Y694) [10]: decrease
- c-myc protein level [10]: reduction
- cyclin D1 protein level [10]: reduction
- expression of β-catenin [10]: marked reduction
- total levels of these phosphorylated proteins [10]: not accompanied by any change
